“And” between values parts separate entries of the source, which are not always exact repeats. Equal entries are not always repeated.
Tests used:
Format in all cases: cell-based, human
Settings in all cases: VAPFPEVF 17.5 µM, YFYPEL 0.03 µM, YQEPVLGPVRGPFPIIV 0.4 µM, normalized to PPIA and GAPDH and untreated cells, mean, n = 3–5
TAS2R20 = experiment: RT-qPCR gene expression of TAS2R20 in HGT-1 cells
Description: (§1) For mRNA expression analysis, 800,000 cells were seeded in a T25 cell culture flask (25 cm^2) 1 day before the experiment. After incubation with 17.5 μM […], 0.03 μM YFYPEL, or 0.4 μM […] for 15, 30, 60, and 120 min, RNA was isolated using the peqGOLD RNA Kit (VWR Peqlab, USA) following the manufacturer’s protocol. Determination of RNA concentration (A260/A280 between 2.03 and 2.09) was performed on a NanoDrop One^c (Thermo Fisher Scientific Inc., USA). RNA integrity number (RIN 9.9–10.0, version 2.6, assay class Eukaryote Total RNA Nano) was analyzed using a 2100 Bioanalyzer (Agilent Technologies, USA). Removal of gDNA and synthesis of cDNA were performed using the iScript gDNA Clear cDNA Synthesis Kit (BioRad, Feldkirchen, Germany) following the manufacturer’s protocol. Real-time-qPCR (RT-qPCR) was performed with 50 ng cDNA amplified with SsoAdvanced Universal SYBR Green Supermix (Bio-Rad Laboratories, Inc., USA). The sequences of the forward and reverse primers of the 25 TAS2Rs were taken from Liszt et al.([13]) (Supporting Information Table-SI 3). Verified primers for the TAS1Rs (TAS1R1: qHsaCID0013443; TAS1R2: qHsaCID0016106; TAS1R3: qHsaCED0002321) and for MAPK1 (qHsaCEP0050000) were obtained from Bio-Rad Laboratories. PPIA[37] and GAPDH[38] were used as reference genes. The effects of the peptides on gene expression were analyzed in comparison to untreated control cells.

TAS2R4 = experiment: RT-qPCR gene expression of TAS2R4 in HGT-1 cells
Description: as §1

TAS2R3 = experiment: RT-qPCR gene expression of TAS2R3 in HGT-1 cells
Description: as §1

TAS2R31 = experiment: RT-qPCR gene expression of TAS2R31 in HGT-1 cells
Description: as §1

TAS2R5 = experiment: RT-qPCR gene expression of TAS2R5 in HGT-1 cells
Description: as §1

TAS2R14 = experiment: RT-qPCR gene expression of TAS2R14 in HGT-1 cells
Description: as §1

TAS2R16 = experiment: RT-qPCR gene expression of TAS2R16 in HGT-1 cells
Description: as §1, with “cells. […]” for “cells.”

TAS2R38 = experiment: RT-qPCR gene expression of TAS2R38 in HGT-1 cells
Description: as §1, with “cells. […]” for “cells.”

TAS2R50 = experiment: RT-qPCR gene expression of TAS2R50 in HGT-1 cells
Description: as §1

| Substance | change in gene expression of TAS2R20 (TAS2R20; incubation 15 min) [fold change] | change in gene expression of TAS2R20 (TAS2R20; incubation 30 min) [fold change] | change in gene expression of TAS2R20 (TAS2R20; incubation 60 min) [fold change] | change in gene expression of TAS2R20 (TAS2R20; incubation 120 min) [fold change] | change in gene expression of TAS2R4 (TAS2R4; incubation 15 min) [fold change] | change in gene expression of TAS2R4 (TAS2R4; incubation 30 min) [fold change] | change in gene expression of TAS2R4 (TAS2R4; incubation 60 min) [fold change] | change in gene expression of TAS2R4 (TAS2R4; incubation 120 min) [fold change] | change in gene expression of TAS2R3 (TAS2R3; incubation 15 min) [fold change] | change in gene expression of TAS2R3 (TAS2R3; incubation 30 min) [fold change] | change in gene expression of TAS2R3 (TAS2R3; incubation 60 min) [fold change] | change in gene expression of TAS2R3 (TAS2R3; incubation 120 min) [fold change] | change in gene expression of TAS2R31 (TAS2R31; incubation 15 min) [fold change] | change in gene expression of TAS2R31 (TAS2R31; incubation 30 min) [fold change] | change in gene expression of TAS2R31 (TAS2R31; incubation 60 min) [fold change] | change in gene expression of TAS2R31 (TAS2R31; incubation 120 min) [fold change] | change in gene expression of TAS2R5 (TAS2R5; incubation 15 min) [fold change] | change in gene expression of TAS2R5 (TAS2R5; incubation 30 min) [fold change] | change in gene expression of TAS2R5 (TAS2R5; incubation 60 min) [fold change] | change in gene expression of TAS2R5 (TAS2R5; incubation 120 min) [fold change] | also measured |
| --- | --- | --- | --- | --- | --- | --- | --- | --- | --- | --- | --- | --- | --- | --- | --- | --- | --- | --- | --- | --- | --- |
| YFYPEL [bitter casein peptide αS1-CN144–149] | 1.37 | 0.93 | 0.94 | 1.16 | 1.24 | 0.81 | 0.92 | 1.13 | 1.54 | 1.08 | 1.19 | 1.34 | 1.65 | 0.91 | 0.96 | 1.09 | 1.34 | 1.03 | 0.90 | 1.02 | change in gene expression of TAS2R14 (TAS2R14; incubation 15 min): 1.11 fold change; change in gene expression of TAS2R14 (TAS2R14; incubation 30 min): 0.92 fold change; change in gene expression of TAS2R14 (TAS2R14; incubation 60 min): 0.99 fold change; change in gene expression of TAS2R14 (TAS2R14; incubation 120 min): 1.21 fold change; change in gene expression of TAS2R16 (TAS2R16; incubation 15 min): 2.58 fold change; change in gene expression of TAS2R16 (TAS2R16; incubation 30 min): 3.19 fold change and 3.19 ± 0.50 fold change; change in gene expression of TAS2R16 (TAS2R16; incubation 60 min): 2.44 fold change; change in gene expression of TAS2R16 (TAS2R16; incubation 120 min): 2.51 fold change; change in gene expression of TAS2R38 (TAS2R38; incubation 15 min): 2.96 fold change; change in gene expression of TAS2R38 (TAS2R38; incubation 30 min): 3.40 fold change; change in gene expression of TAS2R38 (TAS2R38; incubation 60 min): 2.39 fold change; change in gene expression of TAS2R38 (TAS2R38; incubation 120 min): 2.91 fold change; change in gene expression of TAS2R50 (TAS2R50; incubation 15 min): 1.50 fold change; change in gene expression of TAS2R50 (TAS2R50; incubation 30 min): 0.70 fold change; change in gene expression of TAS2R50 (TAS2R50; incubation 60 min): 0.92 fold change; change in gene expression of TAS2R50 (TAS2R50; incubation 120 min): 0.91 fold change |
| YQEPVLGPVRGPFPIIV [bitter casein peptide βA1/A2-CN193–209] | 0.95 | 1.42 | 1.38 | 1.31 | 0.79 | 1.71 | 1.60 | 1.21 | 1.03 | 1.89 | 1.61 | 1.40 | 0.86 | 1.43 | 1.33 | 0.99 | 1.25 | 1.45 | 1.39 | 1.22 | change in gene expression of TAS2R14 (TAS2R14; incubation 15 min): 0.85 fold change; change in gene expression of TAS2R14 (TAS2R14; incubation 30 min): 1.08 fold change; change in gene expression of TAS2R14 (TAS2R14; incubation 60 min): 1.03 fold change; change in gene expression of TAS2R14 (TAS2R14; incubation 120 min): 1.08 fold change; change in gene expression of TAS2R16 (TAS2R16; incubation 15 min): 2.61 fold change; change in gene expression of TAS2R16 (TAS2R16; incubation 30 min): 3.46 fold change and 3.46 ± 0.58 fold change; change in gene expression of TAS2R16 (TAS2R16; incubation 60 min): 2.50 fold change; change in gene expression of TAS2R16 (TAS2R16; incubation 120 min): 3.00 fold change; change in gene expression of TAS2R38 (TAS2R38; incubation 15 min): 2.01 fold change; change in gene expression of TAS2R38 (TAS2R38; incubation 30 min): 3.71 fold change; change in gene expression of TAS2R38 (TAS2R38; incubation 60 min): 2.05 fold change; change in gene expression of TAS2R38 (TAS2R38; incubation 120 min): 2.38 fold change; change in gene expression of TAS2R50 (TAS2R50; incubation 15 min): 0.67 fold change; change in gene expression of TAS2R50 (TAS2R50; incubation 30 min): 1.66 fold change; change in gene expression of TAS2R50 (TAS2R50; incubation 60 min): 1.21 fold change; change in gene expression of TAS2R50 (TAS2R50; incubation 120 min): 1.07 fold change |
| VAPFPEVF [bitter casein peptide αS1-CN25–32] | 0.70 | 1.33 | 0.87 | 1.78 | 0.50 | 1.14 | 0.95 | 1.42 | 0.70 | 1.56 | 1.06 | 1.72 | 0.66 | 1.14 | 0.70 | 1.22 | 0.91 | 1.05 | 0.93 | 1.23 | change in gene expression of TAS2R14 (TAS2R14; incubation 15 min): 0.67 fold change; change in gene expression of TAS2R14 (TAS2R14; incubation 30 min): 0.97 fold change; change in gene expression of TAS2R14 (TAS2R14; incubation 60 min): 0.86 fold change; change in gene expression of TAS2R14 (TAS2R14; incubation 120 min): 1.08 fold change; change in gene expression of TAS2R16 (TAS2R16; incubation 15 min): 1.50 fold change; change in gene expression of TAS2R16 (TAS2R16; incubation 30 min): 3.70 fold change and 3.70 ± 0.97 fold change; change in gene expression of TAS2R16 (TAS2R16; incubation 60 min): 1.65 fold change; change in gene expression of TAS2R16 (TAS2R16; incubation 120 min): 2.88 fold change; change in gene expression of TAS2R38 (TAS2R38; incubation 15 min): 1.31 fold change; change in gene expression of TAS2R38 (TAS2R38; incubation 30 min): 2.42 fold change and 2.42 ± 0.55 fold change; change in gene expression of TAS2R38 (TAS2R38; incubation 60 min): 1.15 fold change; change in gene expression of TAS2R38 (TAS2R38; incubation 120 min): 2.45 fold change and 2.45 ± 0.26 fold change; change in gene expression of TAS2R50 (TAS2R50; incubation 15 min): 0.56 fold change; change in gene expression of TAS2R50 (TAS2R50; incubation 30 min): 1.39 fold change; change in gene expression of TAS2R50 (TAS2R50; incubation 60 min): 0.83 fold change; change in gene expression of TAS2R50 (TAS2R50; incubation 120 min): 1.56 fold change |
